Counter-ions that a name gives are not always drawn.
Legend:
human Factor Xa = human Factor Xa (Homo sapiens, UniProt P00742); assay: In vitro assay for inhibition of Factor Xa (fluorogenic assay, Rhodamine 110 bis-Cbz-glycylglycyl-L-arginine amide substrate); format: biochemical; conditions: for Factor Xa inhibitory activity: human Factor Xa 0.0003 U.ml-1, substrate 10 μM, 15 min preincubation, room temperature, pH 7.4; for Ki: Ki=IC50/(1+[Substrate]/Km), i.e. IC50 divided by 1.6, human Factor Xa fluorogenic assay
Description: Compounds of the present invention were tested for their Factor Xa inhibitory activity as determined in vitro by their ability to inhibit human Factor Xa in a fluorogenic assay, using Rhodamine 110, bis-Cbz-glycylglycyl-L-arginine amide as the fluorogenic substrate. Compounds were diluted from a 10 mM stock solution in dimethylsulfoxide at appropriate concentrations. Assay was performed at room temperature using buffer consisting of: 50 mM Tris-HCl, 150 mM NaCl, 5 mM CaCl2, pH 7.4 containing human Factor Xa (final concentration of 0.0003 U.ml-1). Compound and enzyme were preincubated for 15 min prior to addition of the substrate (final concentration of 10 μM). The reaction was stopped after 3 hrs with the addition of H-D-Phe-Pro-Arg-Chloromethylketone. An LJL-Analyst fluorimeter was used to monitor fluorescence with 485 nm excitation/535 nm emission. To obtain IC50 values the data were analysed using ActivityBase® and XLfit®.
Ki=IC50/(1+[Substrate]/Km)
The Ki value for the above assay can be obtained by dividing the IC50 value by 1.6.

human plasma = assay: Measurement of Prothrombin Time (PT), time to clot formation in plasma; conditions: pooled plasma from 4 donors, test compound 0.03 to 100 uM, Thromboplastin C Plus
Description: Blood was collected into a sodium citrate solution (ratio 9:1) to give a final concentration of 0.38% citrate. Plasma was generated by centrifugation of citrated blood samples at 1200×g for 20 min at 4° C. and stored at −20° C. until use.
The PT test was performed using the BCS Coagulation Analyzer (Dade Behring). For assay, 50 ul of plasma containing test compound at concentrations ranging from 0.03 to 100 uM (made from a 100 uM stock containing 1% DMSO in plasma) was combined with 100 ul of Thromboplastin C Plus (Dade Behring). Upon addition of the reagents, absorbance at 405 nm was monitored and time to clot formation is determined (normal range for human plasma is 10.6-12.4 seconds).

Sequence of human Factor Xa (P00742 235-488 limits assumed): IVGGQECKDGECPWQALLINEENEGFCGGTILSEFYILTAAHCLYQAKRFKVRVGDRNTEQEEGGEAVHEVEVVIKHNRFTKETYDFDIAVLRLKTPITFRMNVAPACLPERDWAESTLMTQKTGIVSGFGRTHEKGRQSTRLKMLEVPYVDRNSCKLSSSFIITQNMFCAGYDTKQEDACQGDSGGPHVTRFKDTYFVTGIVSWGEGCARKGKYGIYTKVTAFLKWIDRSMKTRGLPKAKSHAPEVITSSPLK
Sequence of human Factor Xa (P00742 41-179 partner limits assumed): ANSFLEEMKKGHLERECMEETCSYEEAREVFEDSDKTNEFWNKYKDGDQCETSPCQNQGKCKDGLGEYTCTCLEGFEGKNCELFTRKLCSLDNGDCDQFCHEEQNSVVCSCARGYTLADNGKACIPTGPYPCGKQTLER

Structure (SMILES)	Factor Xa inhibitory activity (human Factor Xa)	activity in prothrombin time (PT) test (human plasma)	Ki (human Factor Xa) [nM]
Cl.O=C1[C@@H](NS(=O)(=O)/C=C/c2ccc(Cl)s2)CCN1c1ccc2c(c1)CCNC2 [Example 2, (E)-2-(5-Chloro-2-thienyl)-N-[(3S)-2-oxo-1-(1,2,3,4-tetrahydro-6-isoquinolinyl)-3-pyrrolidinyl]ethenesulfonamide hydrochloride]	exhibit Factor Xa inhibitory activity	exhibit activity	–
Cc1cc2c(cc1N1CC[C@H](NS(=O)(=O)c3ccc4cc(Cl)ccc4c3)C1=O)CCNC2.Cl [Example 27, 6-Chloro-N-[(3S)-1-(7-methyl-1,2,3,4-tetrahydro-6-isoquinolinyl)-2-oxo-3-pyrrolidinyl]-2-naphthalenesulfonamide hydrochloride]	exhibit Factor Xa inhibitory activity	exhibit activity	–
O=C1[C@@H](NS(=O)(=O)c2ccc3c(Cl)c[nH]c3c2)CCN1c1ccc2c(c1)CCNC2.O=CO [Example 4, 3-Chloro-N-[(3S)-2-oxo-1-(1,2,3,4-tetrahydro-6-isoquinolinyl)-3-pyrrolidinyl]-1H-indole-6-sulfonamide formate]	exhibit Factor Xa inhibitory activity	exhibit activity	–
Cl.O=C1[C@@H](NS(=O)(=O)/C=C/c2ccc(Cl)s2)CCN1c1ccc2c(c1)CNCC2 [Example 13, (E)-2-(5-Chloro-2-thienyl)-N-[(3S)-2-oxo-1-(1,2,3,4-tetrahydro-7-isoquinolinyl)-3-pyrrolidinyl]ethenesulfonamide hydrochloride]	exhibit Factor Xa inhibitory activity	exhibit activity	–
CC1Cc2cc(N3CC[C@H](NS(=O)(=O)/C=C/c4ccc(Cl)s4)C3=O)ccc2CN1 (stereo partly drawn) [Example 33, (E)-2-(5-Chloro-2-thienyl)-N-[(3S)-1-(3-methyl-1,2,3,4-tetrahydro-6-isoquinolinyl)-2-oxo-3-pyrrolidinyl]ethenesulfonamide hydrochloride]	exhibit Factor Xa inhibitory activity	exhibit activity	< 10
Cl.O=C1[C@@H](NS(=O)(=O)c2cc3ccc(Cl)cc3s2)CCN1c1cc2c(cc1F)CNCC2 [Example 21, 6-Chloro-N-[(3S)-1-(7-fluoro-1,2,3,4-tetrahydro-6-isoquinolinyl)-2-oxo-3-pyrrolidinyl]-1-benzothiophene-2-sulfonamide hydrochloride]	exhibit Factor Xa inhibitory activity	exhibit activity	< 10
Cl.O=C1[C@@H](NS(=O)(=O)c2ccc3cc(Cl)ccc3c2)CCN1c1cc2c(cc1F)CNCC2 [Example 20, 6-Chloro-N-[1-(7-fluoro-1,2,3,4-tetrahydro-6-isoquinolinyl)-2-oxo-3-pyrrolidinyl]-2-naphthalenesulfonamide hydrochloride]	exhibit Factor Xa inhibitory activity	exhibit activity	–
CC(C)N1CCc2cc(N3CC[C@H](NS(=O)(=O)c4ccc5cc(Cl)ccc5c4)C3=O)ccc2C1 [Example 30, 6-Chloro-N-{(3S)-1-[2-(1-methylethyl)-1,2,3,4-tetrahydro-6-isoquinolinyl]-2-oxo-3-pyrrolidinyl}-2-naphthalenesulfonamide]	exhibit Factor Xa inhibitory activity	exhibit activity	< 10
O=C1[C@@H](NS(=O)(=O)c2ccc3c(Cl)c[nH]c3c2)CCN1c1ccc2c(c1)CNCC2.O=CO [Example 14, 3-Chloro-N-[(3S)-2-oxo-1-(1,2,3,4-tetrahydro-7-isoquinolinyl)-3-pyrrolidinyl]-1H-indole-6-sulfonamide formate]	exhibit Factor Xa inhibitory activity	exhibit activity	–
Cl.O=C1[C@@H](NS(=O)(=O)/C=C/c2ccc(Cl)s2)CCN1c1ccc2c(c1F)CCNC2 [Example 18, (E)-2-(5-Chloro-2-thienyl)-N-[(3S)-1-(5-fluoro-1,2,3,4-tetrahydro-6-isoquinolinyl)-2-oxo-3-pyrrolidinyl]ethenesulfonamide hydrochloride]	exhibit Factor Xa inhibitory activity	exhibit activity	–
Cl.O=C1[C@@H](NS(=O)(=O)c2ccc3cc(Cl)ccc3c2)CCN1c1ccc2c(c1)CCNC2 [Example 1, 6-Chloro-N-[(3S)-2-oxo-1-(1,2,3,4-tetrahydro-6-isoquinolinyl)-3-pyrrolidinyl]-2-naphthalenesulfonamide hydrochloride]	exhibit Factor Xa inhibitory activity	exhibit activity	–
CC1Cc2cc(N3CC[C@H](NS(=O)(=O)c4ccc5cc(Cl)ccc5c4)C3=O)ccc2CN1.O=CO (stereo partly drawn) [Example 38, 6-Chloro-N-[(3S)-1-(3-methyl-1,2,3,4-tetrahydro-6-isoquinolinyl)-2-oxo-3-pyrrolidinyl]-2-naphthalenesulfonamide formate]	exhibit Factor Xa inhibitory activity	exhibit activity	–
CN1CCc2cc(N3CC[C@H](NS(=O)(=O)c4cc5ccc(Cl)cc5s4)C3=O)ccc2C1.O=CO [Example 8, 6-Chloro-N-[(3S)-1-(2-methyl-1,2,3,4-tetrahydro-6-isoquinolinyl)-2-oxo-3-pyrrolidinyl]-1-benzothiophene-2-sulfonamide formate]	exhibit Factor Xa inhibitory activity	exhibit activity	< 10
CC1NCCc2cc(N3CC[C@H](NS(=O)(=O)c4ccc5cc(Cl)ccc5c4)C3=O)ccc21 (stereo partly drawn) [Example 31, 6-Chloro-N-[(3S)-1-(1-methyl-1,2,3,4-tetrahydro-6-isoquinolinyl)-2-oxo-3-pyrrolidinyl]-2-naphthalenesulfonamide hydrochloride]	exhibit Factor Xa inhibitory activity	exhibit activity	< 10
O=C1[C@@H](NS(=O)(=O)c2cc3cc(Cl)ccc3s2)CCN1c1ccc2c(c1)CCNC2 [Example 9, 5-Chloro-N-[(3S)-2-oxo-1-(1,2,3,4-tetrahydro-6-isoquinolinyl)-3-pyrrolidinyl]-1-benzothiophene-2-sulfonamide trifluoroacetate]	exhibit Factor Xa inhibitory activity	exhibit activity	–
CN1CCc2cc(N3CC[C@H](NS(=O)(=O)/C=C/c4ccc(Cl)s4)C3=O)ccc2C1.O=CO [Example 7, (E)-2-(5-Chloro-2-thienyl)-N-[(3S)-1-(2-methyl-1,2,3,4-tetrahydro-6-isoquinolinyl)-2-oxo-3-pyrrolidinyl]ethenesulfonamide formate]	exhibit Factor Xa inhibitory activity	exhibit activity	–
Cc1cc2c(cc1N1CC[C@H](NS(=O)(=O)c3ccc4c(Cl)c[nH]c4c3)C1=O)CCNC2.Cl [Example 29, 3-Chloro-N-[(3S)-1-(7-methyl-1,2,3,4-tetrahydro-6-isoquinolinyl)-2-oxo-3-pyrrolidinyl]-1H-indole-6-sulfonamide hydrochloride]	exhibit Factor Xa inhibitory activity	exhibit activity	–

— US20090099231A1, “3-Sulfonylamino-Pyrrolidine-2-One Derivatives as Factor Xa Inhibitors” (priority 2005, published 2009)
